Measurements: ChEMBL document CHEMBL1201862, “PubChem BioAssay data set” (2004)
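These data come from cells grown in 96-well plates and exposed to compound for 48 hours at five concentrations. GI50 = concentration required for 50% inhibition of growth.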 Active and inactive are the calls of the source. Rule as the data show it: active = GI50 up to about 1.1 µM and inactive = higher.

Legend:
Assay in all cases: NCI tumour cell line growth inhibition, 48 h
NCI-H460 = tested on: NCI-H460
COLO 205 = tested on: COLO 205
SK-MEL-5 = tested on: SK-MEL-5
TK-10 = tested on: TK-10
HCC 2998 = tested on: HCC 2998
M19-MEL = tested on: M19-MEL
Malme-3M = tested on: Malme-3M
MOLT-4 = tested on: MOLT-4
CCRF-CEM = tested on: CCRF-CEM
786-0 = tested on: 786-0
HCT-116 = tested on: HCT-116
DMS-114 = tested on: DMS-114
SNB-75 = tested on: SNB-75
OVCAR-8 = tested on: OVCAR-8
KM-20L2 = tested on: KM-20L2
RPMI-8226 = tested on: RPMI-8226
NCI-H226 = tested on: NCI-H226
SF-268 = tested on: SF-268
HCT-15 = tested on: HCT-15
UO-31 = tested on: UO-31
OVCAR-4 = tested on: OVCAR-4
HT-29 = tested on: HT-29
OVCAR-3 = tested on: OVCAR-3
UACC-257 = tested on: UACC-257
M14 = tested on: M14
SR = tested on: SR
U-251 = tested on: U-251
KM12 = tested on: KM12
NCI-H522 = tested on: NCI-H522
HL-60 = tested on: HL-60
OVCAR-5 = tested on: OVCAR-5
SK-MEL-2 = tested on: SK-MEL-2
RXF 393 = tested on: RXF 393
DLD-1 = tested on: DLD-1
SN12C = tested on: SN12C
SK-OV-3 = tested on: SK-OV-3
HOP-62 = tested on: HOP-62
A549 = tested on: A549
SNB-78 = tested on: SNB-78
SK-MEL-28 = tested on: SK-MEL-28
K562 = tested on: K562
XF498 = tested on: XF498
EKVX = tested on: EKVX
A498 = tested on: A498
UACC-62 = tested on: UACC-62
SNB-19 = tested on: SNB-19
LOX IMVI = tested on: LOX IMVI
LXFL 529 = tested on: LXFL 529
CAKI-1 = tested on: CAKI-1
SF-539 = tested on: SF-539
SF-295 = tested on: SF-295
NCI-H23 = tested on: NCI-H23
ACHN = tested on: ACHN
IGROV-1 = tested on: IGROV-1
HOP-92 = tested on: HOP-92
SW-620 = tested on: SW-620
DMS-273 = tested on: DMS-273
HOP-18 = tested on: HOP-18

Cc1cc(NCCCCCCCNc2cc(C)nc3cc(N)ccc23)c2ccc(N)cc2n1
GI50 (NCI-H460): 27.2 µM (inactive)
GI50 (COLO 205): 14 µM (inactive)
GI50 (SK-MEL-5): 22.2 µM (inactive)
GI50 (TK-10): > 100 µM (inactive)
GI50 (HCC 2998): 46.2 µM (inactive)
GI50 (M19-MEL): 32.2 µM (inactive)
GI50 (Malme-3M): 36 µM (inactive)
GI50 (MOLT-4): 33.4 µM (inactive)
GI50 (CCRF-CEM): 15.6 µM (inactive)
GI50 (786-0): > 100 µM (inactive)
GI50 (HCT-116): 27.6 µM (inactive)
GI50 (DMS-114): 1.57 µM (inactive)
GI50 (SNB-75): 25.2 µM (inactive)
GI50 (OVCAR-8): 36.3 µM (inactive)
GI50 (KM-20L2): 34.2 µM (inactive)
GI50 (RPMI-8226): 14.8 µM (inactive)
GI50 (NCI-H226): 20.4 µM (inactive)
GI50 (SF-268): 60.3 µM (inactive)
GI50 (HCT-15): > 100 µM
GI50 (UO-31): > 100 µM (inactive)
GI50 (OVCAR-4): 72.3 µM (inactive)
GI50 (HT-29): 34 µM (inactive)
GI50 (OVCAR-3): 44 µM (inactive)
GI50 (UACC-257): 47.6 µM (inactive)
GI50 (M14): 43 µM (inactive)
GI50 (SR): 18.6 µM (inactive)
GI50 (U-251): 28.1 µM (inactive)
GI50 (KM12): 20.7 µM (inactive)
GI50 (NCI-H522): 13.7 µM (inactive)
GI50 (HL-60): 3.1 µM (inactive)
GI50 (OVCAR-5): > 100 µM (inactive)
GI50 (SK-MEL-2): 78.3 µM (inactive)
GI50 (RXF 393): 79.3 µM (inactive)
GI50 (DLD-1): 28.8 µM (inactive)
GI50 (SN12C): 10.5 µM (inactive)
GI50 (SK-OV-3): 40.6 µM (inactive)
GI50 (HOP-62): 41.9 µM (inactive)
GI50 (A549): 29.9 µM (inactive)
GI50 (SNB-78): 40.3 µM (inactive)
GI50 (SK-MEL-28): 32.7 µM (inactive)
GI50 (K562): 1.37 µM (inactive)
GI50 (XF498): 17.2 µM (inactive)
GI50 (EKVX): 55.6 µM (inactive)
GI50 (A498): 43.2 µM (inactive)
GI50 (UACC-62): 35.5 µM (inactive)
GI50 (SNB-19): 47.2 µM (inactive)
GI50 (LOX IMVI): 21.6 µM (inactive)
GI50 (LXFL 529): 26.5 µM (inactive)
GI50 (CAKI-1): > 100 µM (inactive)
GI50 (SF-539): 27 µM (inactive)
GI50 (SF-295): 10.3 µM (inactive)
GI50 (NCI-H23): 30.8 µM (inactive)
GI50 (ACHN): > 100 µM (inactive)

CC(=O)OC1COC(N2CCc3cc([N+](=O)[O-])ccc32)C(OC(C)=O)C1OC(C)=O (configuration not stated)
GI50 (NCI-H460): > 100 µM (inactive)
GI50 (COLO 205): > 100 µM (inactive)
GI50 (SK-MEL-5): > 100 µM (inactive)
GI50 (TK-10): > 100 µM (inactive)
GI50 (IGROV-1): > 100 µM (inactive)
GI50 (M19-MEL): > 100 µM (inactive)
GI50 (HOP-92): 36 µM (inactive)
GI50 (SW-620): > 100 µM (inactive)
GI50 (MOLT-4): > 100 µM (inactive)
GI50 (CCRF-CEM): > 100 µM (inactive)
GI50 (786-0): > 100 µM (inactive)
GI50 (DMS-114): > 100 µM (inactive)
GI50 (SNB-75): > 100 µM (inactive)
GI50 (OVCAR-8): > 100 µM (inactive)
GI50 (KM-20L2): > 100 µM (inactive)
GI50 (RPMI-8226): > 100 µM (inactive)
GI50 (NCI-H226): 63.7 µM (inactive)
GI50 (SF-268): > 100 µM (inactive)
GI50 (HCT-15): > 100 µM
GI50 (UO-31): > 100 µM (inactive)
GI50 (OVCAR-4): > 100 µM (inactive)
GI50 (HT-29): > 100 µM (inactive)
GI50 (OVCAR-3): > 100 µM (inactive)
GI50 (UACC-257): > 100 µM (inactive)
GI50 (M14): > 100 µM (inactive)
GI50 (SR): > 100 µM (inactive)
GI50 (U-251): > 100 µM (inactive)
GI50 (KM12): > 100 µM (inactive)
GI50 (NCI-H522): > 100 µM (inactive)
GI50 (SK-MEL-2): > 100 µM (inactive)
GI50 (RXF 393): > 100 µM (inactive)
GI50 (DLD-1): > 100 µM (inactive)
GI50 (SK-OV-3): > 100 µM (inactive)
GI50 (HOP-62): > 100 µM (inactive)
GI50 (A549): > 100 µM (inactive)
GI50 (SNB-78): > 100 µM (inactive)
GI50 (SK-MEL-28): > 100 µM (inactive)
GI50 (K562): > 100 µM (inactive)
GI50 (XF498): 50.4 µM (inactive)
GI50 (EKVX): > 100 µM (inactive)
GI50 (A498): 7.23 µM (inactive)
GI50 (UACC-62): > 100 µM (inactive)
GI50 (DMS-273): > 100 µM (inactive)
GI50 (SNB-19): > 100 µM (inactive)
GI50 (LOX IMVI): > 100 µM (inactive)
GI50 (LXFL 529): > 100 µM (inactive)
GI50 (CAKI-1): > 100 µM (inactive)
GI50 (SF-539): > 100 µM (inactive)
GI50 (SF-295): > 100 µM (inactive)
GI50 (NCI-H23): > 100 µM (inactive)
GI50 (ACHN): > 100 µM (inactive)

COc1cc(C2c3cc4c(cc3[C@@H](NCCN3CCOCC3)C3COC(=O)[C@H]23)OCO4)cc(OC)c1O (some centres not stated)
GI50 (TK-10): 7.85 µM (inactive)
GI50 (IGROV-1): 8.11 µM (inactive)
GI50 (HCC 2998): 1.97 µM (inactive)
GI50 (Malme-3M): 2.31 µM (inactive)
GI50 (HOP-92): 1.04 µM (active)
GI50 (SW-620): 1.23 µM (inactive)
GI50 (786-0): 1.19 µM (inactive)
GI50 (HCT-116): 3.01 µM (inactive)
GI50 (HOP-18): 2.81 µM (inactive)
GI50 (OVCAR-8): 2.18 µM (inactive)
GI50 (KM-20L2): 2.96 µM (inactive)
GI50 (SF-268): 1.56 µM (inactive)
GI50 (HCT-15): 1.65 µM
GI50 (UO-31): 1.77 µM (inactive)
GI50 (OVCAR-4): 17.8 µM (inactive)
GI50 (HT-29): 4.65 µM (inactive)
GI50 (OVCAR-3): 8.02 µM (inactive)
GI50 (UACC-257): 3.23 µM (inactive)
GI50 (M14): 2.57 µM (inactive)
GI50 (U-251): 0.906 µM (active)
GI50 (KM12): 2.42 µM (inactive)
GI50 (NCI-H522): 2.51 µM (inactive)
GI50 (SK-MEL-2): 4.17 µM (inactive)
GI50 (RXF 393): 2.3 µM (inactive)
GI50 (DLD-1): 6.18 µM (inactive)
GI50 (HOP-62): 0.541 µM (active)
GI50 (SNB-78): 16.5 µM (inactive)
GI50 (SK-MEL-28): 3.71 µM (inactive)
GI50 (K562): 5.56 µM (inactive)
GI50 (EKVX): 14.2 µM (inactive)
GI50 (UACC-62): 1.21 µM (inactive)
GI50 (DMS-273): 0.437 µM (active)
GI50 (SNB-19): 2.51 µM (inactive)
GI50 (LOX IMVI): 0.962 µM (active)
GI50 (LXFL 529): 11.3 µM (inactive)
GI50 (CAKI-1): 1.97 µM (inactive)
GI50 (SF-539): 0.836 µM (active)
GI50 (SF-295): 1.35 µM (inactive)
